Test results as given in US20170165254A1, “TREATING FLAVIVIRUS INFECTIONS WITH AMODIAQUINE AND DERIVATIVES THEREOF” (GEORGETOWN UNIVERSITY, priority 2014, published 2017).
Where a name gives a salt, the structure may show the parent alone. Read-outs that look alike come from different tables or passages of the source.

Key:
WNV replicon = assay: microbe, parasite or virus in culture; assay type: cell-based, West Nile virus (WNV); conditions: for EC50: read-out: WNV replicon EC50; for inhibition of WNV replicon replication (in words): FIG. 1B; for inhibition at 50 µM: read-out: % Replicon Inhibition (Means ± SEM) WNV
DENV2 replicon = assay: microbe, parasite or virus in culture; assay type: cell-based, Dengue Virus 2 (DENV2); conditions: for inhibition at 50 µM: DENV2, BHK-21, read-out: % Replicon Inhibition (Means ± SEM) DENV2
Vero cells = assay: Cytotoxicity assay, Vero cells; conditions: read-out: WNV replicon CC50; Table 2; unit inferred
BHK-21 cells = assay: Cytotoxicity assay, BHK-21 cells; conditions: read-out: DENV replicon CC50; Table 2; unit inferred
DENV2 [1] = assay: Inhibition of DENV2 infectivity in BHK-21 cells, plaque assay of supernatants; assay type: cell-based, Dengue Virus 2 (DENV2); conditions: for EC90: read-out: EC90 for inhibition of DENV2 infectivity (plaque assay)
Experimental: BHK-21 cells were seeded into 12-well plates (10^5 cells/well) and incubated overnight at 37° C. Cells were infected with DENV2 at a multiplicity of infection (MOI) of 0.01 or 1 as indicated. After infection, cells were washed with PBS and incubated with 1.5 mL of MEM supplemented with 2% FBS, 100 I.U./mL penicillin/100 μg/mL streptomycin (referred to as maintenance medium). AQ, at indicated concentrations, was added and cells were incubated at 37° C. for various time points as indicated. DMSO (1%), as a no-compound control (100% infection), and mock-infected control using medium alone (0% infection) were included. Supernatants were collected from the time point experiments and the virus titers determined by plaque assay.
(§1) BHK-21 cells were seeded at ˜10^5 cells/well (12-well plate) or ˜5×10^4 cells/well (24-well plate) and then incubated at 37° C. until reaching 90% confluence. Cells were infected with the supernatants collected from experiments of AQ treatments. Cells were washed with PBS, and incubated with 1.5 mL of overlay medium (maintenance medium containing 1% methylcellulose). The plates were incubated for 3-4 days at 37° C. under 5% CO2. After plaques became visually apparent by microscopy, cells were fixed and stained with 11.1% formaldehyde, 4.75% isopropanol, and 1% crystal violet for 30 minutes. The number of plaque forming units (PFU) per mL was determined.
BHK-21 cells were seeded as described above. AQ, at indicated concentrations in 1% DMSO, was added to DENV2 (MOI of 0.01 or 1)-infected cells during adsorption and/or post-infection. Supernatants were collected at indicated time points post-infection for plaque assays.

DENV2 [2] = assay: Time-course analysis on DENV2 infectivity (indirect plaque assay); assay type: cell-based, Dengue Virus 2 (DENV2)
Experimental: as §1
BHK-21 cells were grown in 6-well plates (˜2.5×10^5 cells/well) and were infected with DENV2 at a MOI of 0.01 in the maintenance medium. Cells were washed with PBS and incubated with 3 mL of maintenance medium. AQ at indicated concentrations was added and cells were incubated at 37° C. Supernatants were sampled as indicated and stored at −70° C. for plaque assays.

DENV2 [3] = assay: Time of addition assay; assay type: cell-based, Dengue Virus 2 (DENV2)
DENV2 [4] = assay: Order of addition assay; assay type: cell-based, Dengue Virus 2 (DENV2); conditions: AQ 5 μM added post-infection; 48 and 72 hours; MOI of 1
Rluc enzyme = target: T1, Rluc enzyme (Renilla reniformis, UniProt P27652); assay type: biochemical; conditions: added to BHK-21/DENV2 replicon cell lysate
T1 sequence (P27652 1-311): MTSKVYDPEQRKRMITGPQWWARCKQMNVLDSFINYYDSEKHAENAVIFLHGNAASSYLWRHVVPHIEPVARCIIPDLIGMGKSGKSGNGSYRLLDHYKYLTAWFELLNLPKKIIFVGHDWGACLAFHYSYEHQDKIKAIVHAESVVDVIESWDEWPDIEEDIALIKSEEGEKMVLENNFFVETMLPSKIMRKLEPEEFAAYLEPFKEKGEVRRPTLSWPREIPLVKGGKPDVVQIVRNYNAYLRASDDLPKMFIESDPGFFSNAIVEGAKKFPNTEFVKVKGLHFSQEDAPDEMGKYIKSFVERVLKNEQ

DENV2 [5] = assay: DENV2 intracellular and extracellular RNA levels by qPCR in BHK-21 cells; assay type: cell-based, Dengue Virus 2 (DENV2); conditions: AQ 5 μM, 72 hours, p<0.001 vs untreated
DENV2 [6] = assay: Direct plaque assay, AQ present only during adsorption (viral entry); assay type: cell-based, Dengue Virus 2 (DENV2)
[7] = 50 μM in 1% DMSO, Vero/WNV replicon cells

| Molecule | % Replicon Inhibition (Means ± SEM) WNV (WNV replicon; [7]) [%] | EC50 (WNV replicon; Table 2, unit inferred) [µM] | inhibition of WNV replicon replication (in words) (WNV replicon; Vero/WNV replicon cells) | % Replicon Inhibition (Means ± SEM) DENV2 (DENV2 replicon) | inhibition of DENV2 replicon replication (in words) (DENV2 replicon) | EC50 (DENV2 replicon; read-out: DENV replicon EC50) [µM] | CC50 (Vero cells) [µM] | CC50 (BHK-21 cells) [µM] | inhibition at 50 µM (WNV replicon; West Nile virus, Vero) [%] | inhibition at 50 µM (DENV2 replicon; Dengue virus) [%] | further results |
| --- | --- | --- | --- | --- | --- | --- | --- | --- | --- | --- | --- |
| CCN(CC)Cc1cc(Nc2c(C)cnc3cc(Cl)ccc23)ccc1O [AQ derivative 1] | 97.9 ± 0.5 | 14.8 ± 0.48 | strong inhibition | 89.9 ± 10.6% | strong inhibition | 21.1 ± 1.22 | – | – | – | – | – |
| CC[N+](C)(CC)Cc1cc(Nc2ccnc3cc(Cl)ccc23)ccc1O [AQ derivative 2] | 50.6 ± 4.4 | 30.2 ± 6.05 | – | 69.9 ± 3.4% | – | 29.7 ± 2.26 | – | – | – | – | – |
| CCN(CC)Cc1cc(Nc2c(C3CCCC3)c(C)nc3cc(Cl)ccc23)ccc1O [AQ derivative 4] | 99.8 ± 0.01 | 3.31 ± 0.73 | strong inhibition | 99.99 ± 0.0% | strong inhibition | 15.4 ± 1.31 | – | – | – | – | – |
| C=CN(C)Cc1cc(Nc2ccnc3cc(Cl)ccc23)ccc1O [AQ derivative 6] | 99.5 ± 0.1 | 6.29 ± 0.52 | strong inhibition | 98.5 ± 1.3% | strong inhibition | 12.5 ± 2.19 | 18.2 ± 1.05 | 16.4 ± 0.46 | – | – | – |
| COc1ccc(Nc2ccnc3cc(Cl)ccc23)cc1CN(CCCl)C(C)CCl (stereo not shown) [AQ derivative 7] | 97.7 ± 1.1 | 14.8 ± 1.14 | strong inhibition | 93.0 ± 2.6% | strong inhibition | 19 ± 1.73 | 34.8 ± 1.78 | 17.7 ± 1.96 | – | – | – |
| Oc1ccc(Nc2ccnc3cc(Cl)ccc23)cc1 [AQ derivative 8] | 57.2 ± 5.1 | > 100 | – | 3.9 ± 0.3% | failed to inhibit replicon replication | > 100 | > 100 | > 100 | – | – | EC90 (DENV2 [1]; MOI of 1, supernatants at 72 hours, BHK-21 cells): 31.2 ± 5.15 µM; EC50 (DENV2 replicon; read-out: EC50 values, BHK-21/DENV2 replicon cells): ~100 µM |
| CCN(CC)Cc1cc(Nc2ccnc3cc(Cl)ccc23)ccc1O [AQ, 4-[(7-chloroquinolin-4-yl)amino]-2(diethylaminomethyl)phenol] | – | – | – | 76.3 ± 1.6% | – | – | 24.4 ± 2.49 | 80 ± 6.27 | 96.3 ± 0.39 | 76.3 ± 1.6 | inhibition of DENV2 infectivity, indirect plaque assay (DENV2 [2]; AQ 5 μM present during and up to 96 hours post-infection): significant inhibition; plaque formation reduced (DENV2 [2]; AQ 5 μM, MOI of 0.01, added during adsorption and post-infection): ≥ 90%; virus titers (PFU/mL) over time course (DENV2 [2]; AQ 1, 5, 10, 25 μM, MOI of 0.01, p<0.05): reduced significantly in a dose-dependent manner; plaque reduction (DENV2 [3]; AQ 5 μM added as late as 15 hours post-infection, supernatants at 72 hours, MOI of 1): ≥ 90%; inhibitory effect when added late (DENV2 [3]; AQ 5 μM added at 21 hours post-infection and later): lost its inhibitory effect; inhibition of DENV2 infection when added early (DENV2 [3]; AQ 5 μM added up to 12 hours post-infection, supernatants at 48 hours): inhibited DENV2 infection steadily; reduction of plaque titer from DMSO control (DENV2 [4]): ≥ 90%; virus infectivity (PFU/mL of supernatant) by plaque assay (DENV2 [1]; AQ 5 μM, 72 hours, BHK-21 cells): significant reduction; EC90 (DENV2 [1]; Dengue virus, DENV2, BHK-21, 96 h): 2.71 ± 0.85 µM; EC50 (DENV2 [1]; Dengue virus, DENV2, MOI of 1, supernatants at 72 hours, BHK-21 cells, read-out: EC50 for inhibition of extracellular release of DENV2 (plaque assay)): 1.08 ± 0.09 µM; EC90 (DENV2 [1]; Dengue virus, DENV2, MOI of 1, supernatants at 72 hours, BHK-21 cells): 2.69 ± 0.4 µM; interference with Rluc enzyme activity (Rluc enzyme): did not interfere; DENV2 replication, intracellular and extracellular RNA levels (qRT-PCR) (DENV2 [5]): effectively inhibited DENV2 replication; plaque titer versus DMSO control, direct plaque assay (DENV2 [6]; AQ 5 μM only during adsorption, MOI of 0.01): not significantly different; virus titer reduced, direct plaque assay (DENV2 [6]; AQ 10 μM during adsorption): 69.23±1.57%; virus titer reduced, direct plaque assay (DENV2 [6]; AQ 25 μM during adsorption): 82.70±2.48%; EC50 (WNV replicon; West Nile virus, Vero): 14.6 ± 2.21 µM; EC50 (DENV2 replicon; Dengue virus, DENV2, BHK-21, read-out: DENV replicon EC50): 10.8 ± 1.43 µM; EC50 (DENV2 replicon; Dengue virus, DENV2, BHK-21, read-out: EC50 in BHK-21/DENV2 replicon cells): 7.41 ± 1.09 µM |
| C/C=C1\CN2CC[C@H]1C[C@H]2[C@H](O)c1ccnc2ccc(O)cc12 [apoquinine] | 33.7 ± 2.9 | – | – | — (key: —: “-” refers to no inhibition) | – | – | – | – | – | – | – |
| CCN(CC)CCCC(C)Nc1ccnc2cc(Cl)ccc12 (stereo not shown) [chloroquine (CQ), chloroquine] | – | – | – | – | did not inhibit DENV2 replicon replication | – | – | – | 18.5 ± 2.8 | 54.8 ± 4.5 | EC90 (DENV2 [1]; Dengue virus, DENV2, BHK-21, 72 h): 5.04 ± 0.72 µM |
| CC(CCCN(CCCl)CCCl)Nc1ccnc2cc(Cl)ccc12.O=C(O)c1cc2ccccc2c(Cc2c(O)c(C(=O)O)cc3ccccc23)c1O [chloroquine mustard pamoate] | – | – | – | 47.5 ± 4.9% | – | – | – | – | – | – | % Replicon Inhibition (Means ± SEM) WNV (WNV replicon): 10.35 ± 4.1% |
| COc1cc(NC(C)CCCN)c2ncccc2c1 (stereo not shown) [primaquine] | – | – | – | – | – | – | – | – | < 0 | < 0 | – |
| C=C[C@H]1C[N@@]2CC[C@H]1C[C@H]2[C@H](O)c1ccnc2ccc(OC)cc12 [quinine, hydrobromide hydrate] | – | – | – | – | – | – | – | – | 34.9 ± 6.7 | 2.8 ± 0.25 | – |
| chloroquine sulfate | – | – | – | 28.1 ± 3.6% | – | – | – | – | – | – | % Replicon Inhibition (Means ± SEM) WNV (WNV replicon): — (key: —: “-” refers to no inhibition) |
